Experiments:
[1] = system: H37Rv Mycobacterium tuberculosis; assay: Antimicrobial susceptibility testing; format: cell-based; conditions: for bactericidal activity: H37Rv Mtb
Mtb fumarase = Mtb fumarase (Mycobacterium tuberculosis, UniProt P9WN93); assay: Biochemical assay of Mtb fumarase enzymatic activity; conditions: for Inhibition (%) at 50 μM: 50 μM ligand concentration
Mtb = conditions: cited from earlier work

Chain of Mtb fumarase (P9WN93 whole entry): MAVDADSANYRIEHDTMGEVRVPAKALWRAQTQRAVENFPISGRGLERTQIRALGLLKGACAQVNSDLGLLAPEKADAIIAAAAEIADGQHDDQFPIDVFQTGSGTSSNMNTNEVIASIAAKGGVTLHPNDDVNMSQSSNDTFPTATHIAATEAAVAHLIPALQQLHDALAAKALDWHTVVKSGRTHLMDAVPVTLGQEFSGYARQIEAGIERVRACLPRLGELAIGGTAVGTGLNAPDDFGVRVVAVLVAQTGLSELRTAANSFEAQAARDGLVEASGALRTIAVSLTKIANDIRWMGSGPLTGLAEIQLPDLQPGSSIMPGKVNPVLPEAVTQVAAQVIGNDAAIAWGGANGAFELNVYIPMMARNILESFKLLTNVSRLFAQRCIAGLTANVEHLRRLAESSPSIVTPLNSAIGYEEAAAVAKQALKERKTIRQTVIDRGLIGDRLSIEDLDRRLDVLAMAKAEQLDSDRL

COc1ccc(S(=O)(=O)N2CCCCCCC2)cc1NC(=O)Cc1n[nH]c(=O)c2ccccc12 [Compound 16b, N-(5-(Azocan-1-ylsulfonyl)-2-methoxyphenyl)-2-(4-oxo-3,4-dihydrophthalazin-1-yl)acetamide]
H37Rv Mtb MIC ([1]; 7H9/DPPC medium): highly active | bactericidal activity [1]: activity was observed

COc1ccc(S(=O)(=O)N2CCc3ccccc3CC2)cc1NC(=O)Cc1n[nH]c(=O)c2ccccc12 [Compound 16l, N-(2-Methoxy-5-((1,2,4,5-tetrahydro-3H-benzo[d]azepin-3-yl)sulfonyl)phenyl)-2-(4-oxo-3,4-dihydrophthalazin-1-yl)acetamide]
IC50 fold lower than that of 1 (Mtb fumarase; relative to 1 (IC50 2.0 μM)): 3 fold

COc1ccc(S(=O)(=O)N2CCCCCC2)cc1NC(=O)Cc1ccncc1 [Compound 15i, N-(5-(Azepan-1-ylsulfonyl)-2-methoxyphenyl)-2-(pyridin-4-yl)acetamide]
Inhibition (%) at 50 μM (Mtb fumarase): eliminated inhibitory activity

COc1ccc(S(=O)(=O)N2CCCCCC2)cc1NC(=O)Cc1coc2ccccc12 [Compound 15d, N-(5-(Azepan-1-ylsulfonyl)-2-methoxyphenyl)-2-(benzofuran-3-yl)acetamide]
Inhibition (%) at 50 μM (Mtb fumarase): failed to provide inhibition

COc1ccc(S(=O)(=O)N2CCCCCC2)cc1NC(=O)Cn1cnc2ccccc21 [Compound 15f, N-(5-(Azepan-1-ylsulfonyl)-2-methoxyphenyl)-2-(1H-benzo[d]imidazol-1-yl)acetamide]
Inhibition (%) at 50 μM (Mtb fumarase): failed to provide inhibition

COc1ccc(S(=O)(=O)N2CCCCCC2)cc1NC(=O)Cc1noc2ccccc12 [Compound 15e, N-(5-(Azepan-1-ylsulfonyl)-2-methoxyphenyl)-2-(benzo[d]isoxazol-3-yl)acetamide]
Inhibition (%) at 50 μM (Mtb fumarase): failed to provide inhibition

COc1ccc(S(=O)(=O)N2CCCCCC2)cc1NC(=O)Cc1nnc(O)c2ccccc12 [Compound 1, N-(5-(Azepan-1-ylsulfonyl)-2-methoxyphenyl)-2-(4-oxo-3,4-dihydrophthalazin-1-yl)acetamide]
bactericidal activity [1]: no bactericidal activity | bactericidal properties (Mtb): did not exhibit bactericidal properties

— PMC10478077 (Journal of medicinal chemistry, 2019)
